{"source": "ChEMBL document CHEMBL1201862", "about": "“PubChem BioAssay data set” (2004)", "key": {"CHO": {"tested_on": "CHO", "experiment": "CHO cell viability loss, potency – luminescence, cytotoxicity control for TLR9-MyD88 binding inhibitor project, dose response (AID 588339);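 note: CHO cells stably coexpressing TLR9 and MyD88 fusions from primary screen; compound exposure lasted 48 hours before viability readout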", "assay_type": "functional, cell-based, hamster", "settings": "Cricetulus griseus"}, "[1]": {"target": "Fructose-bisphosphate aldolase (Mycobacterium tuberculosis, UniProt P9WQA3)", "sequence (P9WQA3 whole entry)": "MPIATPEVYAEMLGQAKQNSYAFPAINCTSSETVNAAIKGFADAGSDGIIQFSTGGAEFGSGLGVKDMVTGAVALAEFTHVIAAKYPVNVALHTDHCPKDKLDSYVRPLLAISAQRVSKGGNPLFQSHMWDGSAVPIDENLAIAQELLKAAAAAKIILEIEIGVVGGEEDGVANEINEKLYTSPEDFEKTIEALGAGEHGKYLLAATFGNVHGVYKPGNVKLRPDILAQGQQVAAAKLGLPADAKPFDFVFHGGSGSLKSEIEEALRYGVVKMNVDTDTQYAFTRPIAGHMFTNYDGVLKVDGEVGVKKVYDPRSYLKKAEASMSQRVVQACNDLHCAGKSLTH", "experiment": "Fluorescence-based biochemical high throughput dose response assay for inhibitors of the fructose-bisphosphate aldolase (FBA) of M. tuberculosis.", "assay_type": "functional"}, "Cysteine protease ATG4B": {"target": "T1, Cysteine protease ATG4B (Homo sapiens, UniProt Q9Y4P1)", "T1 sequence (Q9Y4P1 whole entry)": "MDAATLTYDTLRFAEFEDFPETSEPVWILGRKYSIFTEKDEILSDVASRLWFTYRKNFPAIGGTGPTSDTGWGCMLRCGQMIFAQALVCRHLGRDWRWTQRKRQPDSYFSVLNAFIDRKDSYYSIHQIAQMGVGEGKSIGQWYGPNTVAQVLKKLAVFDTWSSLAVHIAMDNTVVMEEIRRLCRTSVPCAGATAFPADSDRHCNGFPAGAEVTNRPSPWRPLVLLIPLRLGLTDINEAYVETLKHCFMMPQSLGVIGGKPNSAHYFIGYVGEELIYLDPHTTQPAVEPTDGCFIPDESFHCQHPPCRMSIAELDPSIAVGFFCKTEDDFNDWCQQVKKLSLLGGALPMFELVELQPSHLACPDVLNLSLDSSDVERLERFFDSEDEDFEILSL", "assay_type": "functional"}, "Phospholipase A2": {"target": "Phospholipase A2 (Homo sapiens, UniProt P04054)", "sequence (P04054 whole entry)": "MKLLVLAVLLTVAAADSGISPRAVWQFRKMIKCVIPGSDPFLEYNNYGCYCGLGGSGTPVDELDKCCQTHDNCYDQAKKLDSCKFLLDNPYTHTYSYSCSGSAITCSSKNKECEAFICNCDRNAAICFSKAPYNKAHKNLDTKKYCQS", "assay_type": "functional"}, "BJ [2]": {"tested_on": "BJ", "experiment": "growth inhibition of engineered Ras-driven BJ cells – cell-based, alamar blue fluorescence, cherrypicked samples, dose response (AID 2631)", "assay_type": "functional", "settings": "Homo sapiens"}, "[3]": {"experiment": "DRD fibroblast viability loss – cell-based, non-viral oncogenic, luminescence, dose response (AID 1934)", "assay_type": "functional", "settings": "Homo sapiens"}, "BJ [4]": {"tested_on": "BJ", "experiment": "BJ-TERT fibroblast viability loss – cell-based, RAS-independent, luminescence, dose response (AID 1933)", "assay_type": "functional", "settings": "Homo sapiens"}, "BJ [5]": {"tested_on": "BJ", "experiment": "cells", "assay_type": "functional, cell-based", "settings": "Homo sapiens"}, "BJ [6]": {"tested_on": "BJ", "experiment": "BJ-TERT-LT-ST fibroblast viability loss – cell-based, RAS-independent, luminescence, dose response (AID 1935);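 note: BJ fibroblasts immortalized with TERT plus LT and ST oncogenes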", "assay_type": "functional", "settings": "Homo sapiens"}, "HEK293 [7]": {"tested_on": "HEK293", "experiment": "cells", "assay_type": "functional, cell-based", "settings": "Homo sapiens"}, "[8]": {"target": "T2, Nuclear receptor subfamily 0 group B member 1 (Homo sapiens, UniProt P51843)", "T2 sequence (P51843 whole entry)": "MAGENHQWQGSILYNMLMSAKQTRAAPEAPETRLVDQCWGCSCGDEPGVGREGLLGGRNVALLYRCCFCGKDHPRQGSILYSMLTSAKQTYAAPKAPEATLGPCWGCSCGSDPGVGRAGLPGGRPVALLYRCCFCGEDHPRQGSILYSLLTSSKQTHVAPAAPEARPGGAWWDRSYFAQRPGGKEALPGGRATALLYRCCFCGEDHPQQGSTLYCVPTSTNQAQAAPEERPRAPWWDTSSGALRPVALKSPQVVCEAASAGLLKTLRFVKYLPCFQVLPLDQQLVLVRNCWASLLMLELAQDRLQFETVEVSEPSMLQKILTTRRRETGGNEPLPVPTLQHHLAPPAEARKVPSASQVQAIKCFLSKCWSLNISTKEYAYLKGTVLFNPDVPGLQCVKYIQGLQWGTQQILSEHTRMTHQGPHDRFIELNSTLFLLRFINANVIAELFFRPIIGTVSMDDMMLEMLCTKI", "experiment": "Luminescence-based cell-based high throughput dose response assay for inhibitors of the orphan nuclear receptor subfamily 0, group B, member 1 (DAX1; NR0B1). [Related pubchem assays (depositor defined):AID504766, AID504790]", "assay_type": "functional"}, "Cryptococcus neoformans": {"tested_on": "Cryptococcus neoformans", "experiment": "PubChem AID 686997", "assay_type": "functional, organism-based"}, "[9]": {"target": "T3, Corticotropin-releasing factor receptor 2/Corticotropin-releasing factor-binding protein (Homo sapiens, UniProt P24387+Q13324)", "T3 sequence (Q13324 whole entry)": "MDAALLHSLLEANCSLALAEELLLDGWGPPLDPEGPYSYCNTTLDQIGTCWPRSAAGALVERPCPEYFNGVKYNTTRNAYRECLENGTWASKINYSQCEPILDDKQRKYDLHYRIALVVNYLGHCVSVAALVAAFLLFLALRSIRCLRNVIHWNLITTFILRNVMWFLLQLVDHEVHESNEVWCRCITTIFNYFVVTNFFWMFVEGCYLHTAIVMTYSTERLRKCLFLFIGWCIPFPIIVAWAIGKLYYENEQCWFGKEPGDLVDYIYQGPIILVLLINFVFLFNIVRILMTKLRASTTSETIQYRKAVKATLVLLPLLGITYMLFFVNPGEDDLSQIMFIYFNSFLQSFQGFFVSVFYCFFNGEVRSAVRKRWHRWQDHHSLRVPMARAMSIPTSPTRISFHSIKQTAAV", "T3 sequence (P24387 whole entry)": "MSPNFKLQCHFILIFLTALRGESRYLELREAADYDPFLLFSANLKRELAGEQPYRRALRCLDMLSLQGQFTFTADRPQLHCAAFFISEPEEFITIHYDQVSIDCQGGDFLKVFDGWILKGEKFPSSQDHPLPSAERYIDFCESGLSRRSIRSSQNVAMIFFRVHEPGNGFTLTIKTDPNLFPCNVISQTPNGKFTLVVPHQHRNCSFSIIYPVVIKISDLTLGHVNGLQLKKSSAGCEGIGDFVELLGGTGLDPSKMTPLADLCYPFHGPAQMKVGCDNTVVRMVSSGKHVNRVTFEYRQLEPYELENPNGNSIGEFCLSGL", "experiment": "Dose Response confirmation of uHTS hits for small molecule antagonists of the CRF-binding protein and CRF-R2 receptor complex.", "assay_type": "functional", "settings": "read-out: IC50_Mean"}, "HEK293 [10]": {"tested_on": "HEK293", "experiment": "cells", "assay_type": "functional, cell-based", "settings": "Homo sapiens", "remark": "listed apart in the source"}, "[11]": {"target": "T4, Rac GTPase-activating protein 1 (Homo sapiens, UniProt Q9H0H5)", "T4 sequence (Q9H0H5 whole entry)": "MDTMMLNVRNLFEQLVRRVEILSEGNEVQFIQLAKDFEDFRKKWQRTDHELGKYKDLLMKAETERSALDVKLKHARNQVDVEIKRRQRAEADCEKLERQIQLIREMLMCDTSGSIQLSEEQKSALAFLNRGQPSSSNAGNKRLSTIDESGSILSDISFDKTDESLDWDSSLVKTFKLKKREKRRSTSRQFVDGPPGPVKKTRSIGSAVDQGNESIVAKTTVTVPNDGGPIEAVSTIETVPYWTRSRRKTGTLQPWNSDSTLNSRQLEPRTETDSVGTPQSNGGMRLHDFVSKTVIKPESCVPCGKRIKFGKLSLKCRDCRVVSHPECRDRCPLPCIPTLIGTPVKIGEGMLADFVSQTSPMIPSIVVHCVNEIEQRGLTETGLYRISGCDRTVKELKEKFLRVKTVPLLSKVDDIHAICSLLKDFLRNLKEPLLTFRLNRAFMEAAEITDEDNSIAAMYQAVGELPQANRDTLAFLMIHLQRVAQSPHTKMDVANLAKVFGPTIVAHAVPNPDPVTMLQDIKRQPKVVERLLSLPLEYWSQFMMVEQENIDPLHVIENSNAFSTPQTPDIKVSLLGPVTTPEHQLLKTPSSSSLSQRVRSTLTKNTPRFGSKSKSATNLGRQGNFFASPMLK", "experiment": "blockers of MgcRacGAP-driven Rac1 GTP hydrolysis – biochemical, ADP Hunter fluorescence, primary and confirmatory, confirmation (AID 624330)", "assay_type": "functional"}, "[12]": {"target": "T3, Corticotropin-releasing factor receptor 2/Corticotropin-releasing factor-binding protein", "experiment": "activators of CRF receptor 2 with binding protein – uHTS hits, confirmation (AID 602473)", "assay_type": "functional", "settings": "read-out: EC50_Mean"}, "HEK293 [13]": {"tested_on": "HEK293", "experiment": "cells", "assay_type": "functional, cell-based", "settings": "Homo sapiens", "remark": "listed apart in the source"}, "[14]": {"experiment": "blockers of CRF-binding protein–CRF-R2 complex – cell-based, uHTS hits, 384-well, dose response (AID 651639)", "assay_type": "functional, Homo sapiens", "settings": "read-out: IC50_Mean"}, "HEK293 [15]": {"tested_on": "HEK293", "experiment": "NOD2 signaling inhibitors in MDP-stimulated cells, cell-based, uHTS, luminescence (AID 2001)", "assay_type": "functional", "settings": "Homo sapiens"}, "[16]": {"target": "Nucleotide-binding oligomerization domain-containing protein 2 (Homo sapiens, UniProt Q9HC29)", "sequence (Q9HC29 whole entry, the tested form may be a part)": "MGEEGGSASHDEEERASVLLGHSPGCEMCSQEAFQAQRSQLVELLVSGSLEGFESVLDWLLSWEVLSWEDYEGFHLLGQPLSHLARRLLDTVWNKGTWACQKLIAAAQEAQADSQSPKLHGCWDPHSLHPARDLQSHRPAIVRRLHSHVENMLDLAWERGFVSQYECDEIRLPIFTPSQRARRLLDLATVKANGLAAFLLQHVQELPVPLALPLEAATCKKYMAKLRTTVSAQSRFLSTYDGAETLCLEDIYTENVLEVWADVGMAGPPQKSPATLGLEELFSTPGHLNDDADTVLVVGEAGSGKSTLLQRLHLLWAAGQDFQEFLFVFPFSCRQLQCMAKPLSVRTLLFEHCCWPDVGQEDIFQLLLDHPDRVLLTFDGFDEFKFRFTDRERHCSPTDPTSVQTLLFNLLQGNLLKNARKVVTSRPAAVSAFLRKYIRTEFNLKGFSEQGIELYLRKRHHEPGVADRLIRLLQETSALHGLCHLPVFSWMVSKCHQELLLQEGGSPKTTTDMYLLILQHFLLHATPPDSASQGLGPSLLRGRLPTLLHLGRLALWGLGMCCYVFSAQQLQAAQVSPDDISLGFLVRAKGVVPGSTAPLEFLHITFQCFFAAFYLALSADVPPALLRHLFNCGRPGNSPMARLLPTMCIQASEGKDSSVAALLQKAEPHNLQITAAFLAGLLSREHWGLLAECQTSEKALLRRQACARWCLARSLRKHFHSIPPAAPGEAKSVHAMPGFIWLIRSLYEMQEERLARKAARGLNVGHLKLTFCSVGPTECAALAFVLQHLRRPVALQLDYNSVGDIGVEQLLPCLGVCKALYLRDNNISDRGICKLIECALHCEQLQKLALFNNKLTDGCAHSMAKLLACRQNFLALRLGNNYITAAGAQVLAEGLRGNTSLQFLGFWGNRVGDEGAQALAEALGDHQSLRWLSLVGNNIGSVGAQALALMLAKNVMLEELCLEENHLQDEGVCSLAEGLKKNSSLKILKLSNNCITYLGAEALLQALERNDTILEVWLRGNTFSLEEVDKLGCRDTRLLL", "experiment": "inhibition of NOD2-driven NF-kB reporter – cell-based, luminescence, uHTS, HEK293 (AID 1566)", "assay_type": "functional"}, "[17]": {"experiment": "viability loss in HeLa cells – cytotoxicity control for MgcRacGAP inhibitor project, dose response (AID 624300)", "assay_type": "functional"}, "HEK293 [18]": {"tested_on": "HEK293", "experiment": "cells", "assay_type": "functional, cell-based", "settings": "Homo sapiens", "remark": "listed apart in the source"}, "HEK293 [19]": {"tested_on": "HEK293", "experiment": "inhibition of NOD1-driven NF-kB reporter – cell-based, luminescence, uHTS, primary screen (AID 1578)", "assay_type": "functional", "settings": "Homo sapiens"}}, "note": "Active and inactive are the calls of the source."}
{"compound": "CCCCNC(=O)COC(=O)c1c2c(nc3ccccc13)/C(=C/c1cccs1)CC2", "values": [{"measurement": "IC50", "setting": "CHO", "result": "> 49.7 µM (inactive)"}]}
{"compound": "COc1ccc2nc3c(O)n4c(nc-3c2c1)SCC4", "values": [{"measurement": "IC50", "setting": "[1]", "result": "1.4 µM (active)"}]}
{"compound": "Nc1nn(-c2ccccc2)c(N)c1N=Nc1ccc2c(c1)OCO2", "values": [{"measurement": "IC50", "setting": "Cysteine protease ATG4B", "result": "15.9 µM (active)"}, {"measurement": "IC50", "setting": "Phospholipase A2", "result": "10.4 µM (active)"}]}
{"compound": "O=C(/C=C\\c1ccco1)Nc1cc([N+](=O)[O-])ccc1F", "values": [{"measurement": "EC50", "setting": "BJ [2]", "result": "0.42 µM (active)"}, {"measurement": "EC50", "setting": "[3]", "result": "1.17 µM (active)"}, {"measurement": "EC50", "setting": "BJ [4]", "result": "1.44 µM (active)"}, {"measurement": "EC50", "setting": "BJ [5]", "result": "2.06 µM (active)"}, {"measurement": "EC50", "setting": "BJ [6]", "result": "0.821 µM (active)"}]}
{"compound": "O=C(COC(=O)CN1C(=O)NC2(CCCC2)C1=O)Nc1ccccc1C(F)(F)F", "values": [{"measurement": "IC50", "setting": "HEK293 [7]", "result": "> 67.5 µM (inactive)"}, {"measurement": "IC50", "setting": "[8]", "result": "> 67.5 µM (inactive)"}]}
{"compound": "O=S(=O)(NCc1ccc2c(c1)OCO2)c1ccc(F)cc1", "values": [{"measurement": "IC50", "setting": "HEK293 [7]", "result": "> 67.6 µM (inactive)"}, {"measurement": "IC50", "setting": "[8]", "result": "> 67.6 µM (inactive)"}]}
{"compound": "COC(=O)C1=C(C)N(Cc2ccc(F)cc2)C(=S)NC1c1cccc(Cl)c1", "note": "(stereo unspecified)", "values": [{"measurement": "AC50", "setting": "Cryptococcus neoformans", "result": "49.5 µM (active)"}, {"measurement": "AC50", "setting": "Cryptococcus neoformans; Cryptococcus neoformans", "result": "> 70 µM (inactive)"}]}
{"compound": "Cc1[nH]n(-c2cccc(Cl)c2)c(=O)c1-c1ccc(Cl)cc1", "values": [{"measurement": "IC50", "setting": "[9]", "result": "0.98 µM (active)"}, {"measurement": "IC50", "setting": "HEK293 [10]", "result": "> 20 µM (inactive)"}, {"measurement": "IC50", "setting": "[11]", "result": "80 µM (active)"}, {"measurement": "EC50", "setting": "[12]", "result": "> 53 µM (inactive)"}, {"measurement": "IC50", "setting": "HEK293 [13]", "result": "> 20 µM (inactive)"}, {"measurement": "IC50", "setting": "[14]", "result": "> 20 µM (inactive)"}, {"measurement": "IC50", "setting": "HEK293 [15]", "result": "9.97 µM (inactive)"}, {"measurement": "EC50", "setting": "[16]", "result": "12.8 µM (active)"}, {"measurement": "CC50", "setting": "[17]", "result": "100 µM (active)"}, {"measurement": "IC50", "setting": "HEK293 [18]", "result": "14.2 µM (active)"}, {"measurement": "EC50", "setting": "HEK293 [19]", "result": "2.43 µM (active)"}]}
